Results published in ChEMBL document CHEMBL3639362, “Pyrrolopyrazoles, potent kinase inhibitors” (2013).

Biological target: Serine/threonine-protein kinase PAK 4 (Homo sapiens, UniProt O96013)
Test: Enzymatic Assay: The enzymatic activity of PAK4 KD was measured by its ability to catalyzed the transfer of a phosphate residue from a nucleoside triphosphate to an amino acid side chain of a commercially available peptide (amino acid sequence EVPRRKSLVGTPYWM).

Chain of Serine/threonine-protein kinase PAK 4 (O96013 whole entry): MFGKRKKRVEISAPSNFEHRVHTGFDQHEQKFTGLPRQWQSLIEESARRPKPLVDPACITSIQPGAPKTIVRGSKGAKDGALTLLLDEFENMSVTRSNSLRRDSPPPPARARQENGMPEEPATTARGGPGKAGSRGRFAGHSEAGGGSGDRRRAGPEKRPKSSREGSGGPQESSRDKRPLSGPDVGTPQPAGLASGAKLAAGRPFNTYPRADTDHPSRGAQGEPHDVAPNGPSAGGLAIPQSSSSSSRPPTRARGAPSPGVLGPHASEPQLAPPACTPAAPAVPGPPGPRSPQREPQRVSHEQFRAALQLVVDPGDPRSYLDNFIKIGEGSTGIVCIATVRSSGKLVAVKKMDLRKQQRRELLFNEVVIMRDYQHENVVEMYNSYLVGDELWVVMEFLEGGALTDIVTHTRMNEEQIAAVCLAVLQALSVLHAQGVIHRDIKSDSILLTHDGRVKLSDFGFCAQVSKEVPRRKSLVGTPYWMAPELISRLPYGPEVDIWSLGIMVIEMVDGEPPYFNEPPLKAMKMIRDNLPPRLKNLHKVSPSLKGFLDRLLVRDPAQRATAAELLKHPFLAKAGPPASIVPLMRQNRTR

EC50: > 4 µM
SMILES: CC1(C)c2n[nH]c(Nc3nc(Cl)nc(N4CCC[C@H]4C(N)=O)n3)c2CN1C(=O)NC1C[C@@H]1c1ccccc1 (stereo partly specified)
